In brackets after ≈: the same amount, converted by molar mass. Read-outs that look alike come from different tables or passages of the source.
Columns and labels:
[1] = system: S. aureus ATCC 43300 (MRSA, FQ-S); test: MIC, selected panel of Gram-positive and Gram-negative strains (Example 5); assay type: cell-based, Staphylococcus aureus
B. thailandensis E264 = test: microbe, parasite or virus in culture; assay type: cell-based, Burkholderia thailandensis; details: for MIC: Burkholderia thailandensis, E264, read-out: MIC B. thailandensis E264
A. baumannii ATCC 19606 = test: MIC, selected panel of Gram-positive and Gram-negative strains (Example 5); assay type: cell-based, Acinetobacter baumannii
E. coli ATCC 25922 = test: as above; assay type: cell-based, Escherichia coli
[2] = system: S. aureus BAA-1556 (USA300-Type MRSA, FQ-R); test: as above; assay type: cell-based, Staphylococcus aureus
P. aeruginosa ATCC 27853 = test: as above; assay type: cell-based
S. aureus ATCC 25923 = test: as above; assay type: cell-based
[3] = Pseudomonas aeruginosa, ATCC27853; read-out: MIC P. aeruginosa ATCC 27853
[4] = Staphylococcus aureus; read-out: MIC S. aureus ATCC 43300 (MRSA, FQ-S)
[5] = Staphylococcus aureus, ATCC25923; read-out: MIC S. aureus ATCC 25923
[6] = Acinetobacter baumannii, ATCC19606; read-out: MIC A. baumannii ATCC 19606
[7] = Escherichia coli, ATCC25922; read-out: MIC E. coli ATCC 25922
[8] = Staphylococcus aureus; read-out: MIC S. aureus BAA-1556 (USA300-Type MRSA, FQ-R)
[9] = Pseudomonas aeruginosa, ATCC27853, read-out: MIC P. aeruginosa ATCC 27853
[10] = Staphylococcus aureus, read-out: MIC S. aureus ATCC 43300 (MRSA, FQ-S)
[11] = Staphylococcus aureus, ATCC25923, read-out: MIC S. aureus ATCC 25923
[12] = Acinetobacter baumannii, ATCC19606, read-out: MIC A. baumannii ATCC 19606
[13] = Escherichia coli, ATCC25922, read-out: MIC E. coli ATCC 25922
[14] = Staphylococcus aureus, read-out: MIC S. aureus BAA-1556 (USA300-Type MRSA, FQ-R)

| Structure (SMILES) | MIC S. aureus ATCC 43300 (MRSA, FQ-S) [1] | MIC B. thailandensis E264 (B. thailandensis E264) | MIC A. baumannii ATCC 19606 (A. baumannii ATCC 19606) | MIC E. coli ATCC 25922 (E. coli ATCC 25922) | MIC S. aureus BAA-1556 (USA300-Type MRSA, FQ-R) [2] | MIC (P. aeruginosa ATCC 27853; [3]) | MIC [1, 4] | MIC (S. aureus ATCC 25923; [5]) | MIC (B. thailandensis E264) | MIC (A. baumannii ATCC 19606; [6]) | MIC (E. coli ATCC 25922; [7]) | MIC [2, 8] | MIC (P. aeruginosa ATCC 27853; [9]) | MIC [1, 10] | MIC (S. aureus ATCC 25923; [11]) | MIC (A. baumannii ATCC 19606; [12]) | MIC (E. coli ATCC 25922; [13]) | MIC [2, 14] |
| --- | --- | --- | --- | --- | --- | --- | --- | --- | --- | --- | --- | --- | --- | --- | --- | --- | --- | --- |
| Cc1c(-c2ccc(CN)cc2)c(F)cn2c(=O)c(C(=O)[O-])cc(C3CC3)c12.[K+] [Compound 6K salt] | 0,064 μg/mL | 4 µg/mL | 1 µg/mL | 0.064 to 0.125 µg/mL | 1 µg/mL | – | – | – | – | – | – | – | – | – | – | – | – | – |
| Cc1c(-c2ccc3c(c2)NC(=O)C(N)C3)ccn2c(=O)c(C(=O)O)cc(C3CC3)c12 (stereo not shown) [Compound 54, 8-(3-amino-2-oxo-3,4-dihydro-1H-quinolin-7-yl)-1-cyclopropyl-9-methyl-4-oxo-quinolizine-3-carboxylic acid] | – | – | – | – | – | > 8 µg/mL | 0.064 µg/mL (≈ 0.159 µM) | 0.064 to 0.125 µg/mL (≈ 0.159 to 0.31 µM) | 4 µg/mL (≈ 9.91 µM) | 4 µg/mL (≈ 9.91 µM) | 0.25 µg/mL (≈ 0.62 µM) | 0.5 µg/mL (≈ 1.24 µM) | – | – | – | – | – | – |
| Cc1c(-c2ccc(O)nc2)ccn2c(=O)c(C(=O)[O-])cc(C3CC3)c12.[K+] [Compound 55K salt, potassium 8-(6-hydroxypyridin-3-yl)-1-cyclopropyl-9-methyl-4-oxo-4H-quinolizine-3-carboxylate] | – | – | – | – | – | – | – | – | 8 µg/mL | – | – | – | > 8 µg/mL | 0.125 to 0.25 µg/mL | 0.5 µg/mL | 8 µg/mL | 0.5 µg/mL | 8 µg/mL |
| Cc1c(-c2cnc(N)nc2)ccn2c(=O)c(C(=O)O)cc(C3CC3)c12 [Compound 57, 8-(2-aminopyrimidin-5-yl)-1-cyclopropyl-9-methyl-4-oxo-quinolizine-3-carboxylic acid] | – | – | – | – | – | > 8 µg/mL | 0.25 µg/mL (≈ 0.743 µM) | 0.25 to 0.5 µg/mL (≈ 0.743 to 1.49 µM) | > 8 µg/mL | 8 µg/mL (≈ 23.8 µM) | 1 µg/mL (≈ 2.97 µM) | 8 µg/mL (≈ 23.8 µM) | – | – | – | – | – | – |
| Cc1c(-c2ccncc2F)ccn2c(=O)c(C(=O)[O-])cc(C3CC3)c12.[K+] [Compound 58K salt, potassium 8-(3-fluoropyridin-4-yl)-1-cyclopropyl-9-methyl-4-oxo-4H-quinolizine-3-carboxylate] | – | – | – | – | – | – | – | – | 1 µg/mL | – | – | – | > 8 µg/mL | 0.064 µg/mL | 0.064 µg/mL | 1 µg/mL | 0.25 µg/mL | 1 to 2 µg/mL |
| Cc1c(-c2ccncc2)c(F)cn2c(=O)c(C(=O)[O-])cc(C3CC3)c12.[K+] [Compound 59K salt, potassium 8-(pyridin-4-yl)-1-cyclopropyl-7-fluoro-9-methyl-4-oxo-4H-quinolizine-3-carboxylate] | – | – | – | – | – | – | – | – | 0.5 µg/mL | – | – | – | 4 µg/mL | 0.016 µg/mL | 0.032 µg/mL | 0.25 µg/mL | 0.064 µg/mL | 0.5 µg/mL |
| Cc1c(-c2ccc(N)nc2)c(F)cn2c(=O)c(C(=O)[O-])cc(C3CC3)c12.[K+] [Compound 60K salt, potassium 8-(6-aminopyridin-3-yl)-1-cyclopropyl-7-fluoro-9-methyl-4-oxo-4H-quinolizine-3-carboxylate] | – | – | – | – | – | – | – | – | 0.5 µg/mL | – | – | – | 2 µg/mL | – | 0.008 µg/mL | 0.064 µg/mL | 0.032 µg/mL | 0.125 µg/mL |
| Cc1c(C2=CCNCC2)c(F)cn2c(=O)c(C(=O)[O-])cc(C3CC3)c12.[K+] [Compound 62K salt, potassium 8-(1,2,3,6-tetrahydropyridin-4-yl)-1-cyclopropyl-7-fluoro-9-methyl-4-oxo-4H-quinolizine-3-carboxylate] | – | – | – | – | – | – | – | – | 2 µg/mL | – | – | – | 1 µg/mL | – | 0.25 µg/mL | 1 µg/mL | 0.032 µg/mL | 4 µg/mL |
| Cc1c(-c2ccc(C(=O)C(F)(F)F)cc2)ccn2c(=O)c(C(=O)O)cc(C3CC3)c12 [Compound 63, 8-[4-(2,2,2-trifluoroacetyl)phenyl]-1-cyclopropyl-9-methyl-4-oxo-quinolizine-3-carboxylic acid] | – | – | – | – | – | > 8 µg/mL | 0.032 µg/mL (≈ 0.077 µM) | 0.064 µg/mL (≈ 0.154 µM) | 2 µg/mL (≈ 4.82 µM) | 2 µg/mL (≈ 4.82 µM) | 0.5 µg/mL (≈ 1.2 µM) | 1 µg/mL (≈ 2.41 µM) | – | – | – | – | – | – |
| Cc1cc(-c2ccn3c(=O)c(C(=O)[O-])cc(C4CC4)c3c2C)ccn1.[K+] [Compound 65K salt, potassium 8-(2-methylpyridin-4-yl)-1-cyclopropyl-9-methyl-4-oxo-4H-quinolizine-3-carboxylate] | – | – | – | – | – | – | – | – | 0.5 µg/mL | – | – | – | 4 µg/mL | 0.008 µg/mL | 0.016 µg/mL | 0.25 µg/mL | 0.032 to 0.064 µg/mL | 0.25 µg/mL |
| Cc1c(-c2cn[nH]c2)ccn2c(=O)c(C(=O)[O-])cc(C3CC3)c12.[K+] [Compound 67K salt, potassium 8-(1H-pyrazol-4-yl)-1-cyclopropyl-9-methyl-4-oxo-4H-quinolizine-3-carboxylate] | – | – | – | – | – | – | – | – | 0.25 µg/mL | – | – | – | 2 µg/mL | 0.016 µg/mL | 0.016 µg/mL | 0.25 µg/mL | 0.032 µg/mL | 1 µg/mL |
| Cc1c(-c2ccc3c(c2)C(=O)NC3)ccn2c(=O)c(C(=O)[O-])cc(C3CC3)c12.[K+] [Compound 68K salt, potassium 8-(3-oxoisoindolin-5-yl)-1-cyclopropyl-9-methyl-4-oxo-4H-quinolizine-3-carboxylate] | – | – | – | – | – | – | – | – | 1 µg/mL | – | – | – | 2 µg/mL | ≤ 0.004 µg/mL | ≤ 0.004 µg/mL | 0.25 µg/mL | 0.064 µg/mL | 0.25 µg/mL |
| Cc1c(-c2ccc(O)c(CN)c2)ccn2c(=O)c(C(=O)[O-])cc(C3CC3)c12.[K+] [Compound 72K salt, potassium 8-(3-(aminomethyl)-4-hydroxyphenyl)-1-cyclopropyl-9-methyl-4-oxo-4H-quinolizine-3-carboxylate] | – | – | – | – | – | – | – | – | 2 µg/mL | – | – | – | 0.5 µg/mL | 0.008 to 0.016 µg/mL | 0.008 µg/mL | 0.25 µg/mL | 0.008 to 0.016 µg/mL | 0.25 µg/mL |
| Cc1c(-c2ccc3[nH]cnc3c2)ccn2c(=O)c(C(=O)[O-])cc(C3CC3)c12.[K+] [Compound 74K salt, potassium 8-(1H-benzo[d]imidazol-5-yl)-1-cyclopropyl-9-methyl-4-oxo-4H-quinolizine-3-carboxylate] | – | – | – | – | – | – | – | – | 2 µg/mL | – | – | – | 8 µg/mL | 0.016 µg/mL | 0.016 µg/mL | 0.5 µg/mL | 0.064 to 0.125 µg/mL | 0.5 µg/mL |
| Cc1cc(-c2ccn3c(=O)c(C(=O)[O-])cc(C4CC4)c3c2C)cnc1N.[K+] [Compound 79K salt, potassium 8-(6-amino-5-methylpyridin-3-yl)-1-cyclopropyl-9-methyl-4-oxo-4H-quinolizine-3-carboxylate] | – | – | – | – | – | – | – | – | 0.5 µg/mL | – | – | – | 2 µg/mL | ≤ 0.004 µg/mL | ≤ 0.004 µg/mL | 0.064 µg/mL | 0.016 µg/mL | – |
| Cc1n[nH]c2ccc(-c3ccn4c(=O)c(C(=O)[O-])cc(C5CC5)c4c3C)cc12.[K+] [Compound 80K salt, potassium 8-(3-methyl-1H-indazol-5-yl)-1-cyclopropyl-9-methyl-4-oxo-4H-quinolizine-3-carboxylate] | – | – | – | – | – | – | – | – | 1 µg/mL | – | – | – | 4 µg/mL | ≤ 0.004 µg/mL | ≤ 0.004 µg/mL | 0.25 µg/mL | 0.064 µg/mL | – |
| Cc1c(-c2ccc3cn[nH]c3c2)ccn2c(=O)c(C(=O)[O-])cc(C3CC3)c12.[K+] [Compound 83K salt, potassium 8-(1H-indazol-6-yl)-1-cyclopropyl-9-methyl-4-oxo-4H-quinolizine-3-carboxylate] | – | – | – | – | – | – | – | – | – | – | – | – | 0.5 µg/mL | ≤ 0.004 µg/mL | ≤ 0.004 µg/mL | 0.032 µg/mL | 0.016 µg/mL | 0.064 µg/mL |

Reference: US10155021B2, “Antimicrobial 4-oxoquinolizines” (Emergent Product Development Gaithersburg Inc., priority 2011, dated 2018)
